Data as given in paper PMC11714206, “Massively Parallel Screening of Toll/Interleukin‐1 Receptor (TIR)‐Derived Peptides Reveals Multiple Toll‐Like Receptors (TLRs)‐Targeting Immunomodulatory Peptides” (Advanced Science, 2024).

Target: T1, MAL^TIR (Homo sapiens, UniProt P58753)
T1 construct: MAL (residues 79–221); 6xHis; made in house; host or cells: E. coli BL21 (DE3)
Test: T‐Surf phage library (P8 and P3) selection against MAL^TIR, four rounds, NGS read counts
Type: binding
Details: for P3_MAL Rank (after) / P3_MAL Rank (before): P3 library; for Population: 4th round of selection against MAL TIR, share of NGS reads; for P8_MAL Rank (after) / P8_MAL Rank (before): P8 library
Method in brief: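 Read counts come from NGS of phage pools after the fourth selection round, barcoded by 20-cycle PCR and filtered for quality ≥30. Each round: phage incubated 1 h at RT on immobilised TIR protein (5 µg mL^−1, BSA-blocked), washed, HCl-eluted and amplified in E. coli TG1.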

[1] = P3_MAL: rank by count after grouping
[2] = P3_MAL: rank by count before grouping
[3] = selection against MAL, rank by count after grouping
[4] = selection against MAL, rank by count before grouping
[5] = selection against MAL TIR, rank by count after grouping
[6] = selection against MAL TIR, rank by count before grouping
[7] = P3_MAL pool: P3 T-Surf phage library
[8] = selection against MAL, rank after grouping
[9] = selection against MAL, rank before grouping
[10] = 4R selection against MAL, rank after grouping
[11] = 4R selection against MAL, rank before grouping
[12] = P8_MAL: rank by count after grouping
[13] = P8_MAL: rank by count before grouping
[14] = P8_MAL pool: P8 T-Surf phage library

T1 sequence (P58753 79-221): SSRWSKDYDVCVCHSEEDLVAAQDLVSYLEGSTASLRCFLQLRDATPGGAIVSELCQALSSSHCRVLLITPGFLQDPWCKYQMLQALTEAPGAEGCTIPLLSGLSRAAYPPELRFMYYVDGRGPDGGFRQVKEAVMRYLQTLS

YAFTRHLHRYLVQSGV
Rank (after) [1]: 147
Rank (before) [2]: 1468

YAFTSHLHHALRLNKIETF
P3_MAL Rank (after) [3]: 711
P3_MAL Rank (before) [4]: 1475

YAFTSHLHRSLVQRGV
P3_MAL Rank (after) [5]: 257
P3_MAL Rank (before) [6]: 1473

YAFTSHLHRYLVQRGV
Population [7]: 0.00827%

YAFTSHLSRYLVQRGV
P3_MAL Rank (after) [5]: 223
P3_MAL Rank (before) [6]: 1476

YAFTSHLYDRLPAPQH
P3_MAL Rank (after) [8]: 554
P3_MAL Rank (before) [9]: 1469

YAFTSHLYDRLQRSGI
P3_MAL Rank (after) [10]: 606
P3_MAL Rank (before) [11]: 1470

YAFTSSLHRYLVQRGV
P3_MAL Rank (after) [10]: 592
P3_MAL Rank (before) [11]: 1481

YALPAICIVIWCSVA
Rank (after) [1]: 138
Rank (before) [2]: 516

YALTGQLHRYLVQRGV
Rank (after) [1]: 151
Rank (before) [2]: 1485

YFLHFLLCSRPETAYI
P8_MAL Rank (after) [5]: 199
P8_MAL Rank (before) [6]: 1496

YFLHFLLFNRPETNYI
P8_MAL Rank (after) [10]: 597
P8_MAL Rank (before) [11]: 1467

YFLHFLLFRRPENAYM
P8_MAL Rank (after) [5]: 268
P8_MAL Rank (before) [6]: 1461

YFLHFLLFSLPATEYI
P8_MAL Rank (after) [10]: 663
P8_MAL Rank (before) [11]: 1473

YFLHFLLFSLPENECI
P8_MAL Rank (after) [8]: 544
P8_MAL Rank (before) [9]: 1474

YFLHFLLFSLRKPSI
P8_MAL Rank (after) [5]: 197
P8_MAL Rank (before) [6]: 779

YFLHFLLFSRLDTVYI
Rank (after) [12]: 464
Rank (before) [13]: 1504

YFLHFLLFSRLETEYI
Population [14]: 0.00278%

YFLHFLLFSRPEPAYI
Rank (after) [12]: 114
Rank (before) [13]: 1463

YFLHFLLFSRPETEYI
Rank (after) [1]: 386
Rank (before) [2]: 1336

YFLHFLLFSRPETVYI
Population [14]: 0.00309%

YFLHFLLFSRPNRVY
Rank (after) [12]: 438
Rank (before) [13]: 1488

YFLHFLLFSRPQTQYI
Rank (after) [12]: 137
Rank (before) [13]: 1458

YFLHFLLLAVRKPSI
P8_MAL Rank (after) [5]: 196
P8_MAL Rank (before) [6]: 791

YFLHFLLVSRAEAEFI
P8_MAL Rank (after) [8]: 565
P8_MAL Rank (before) [9]: 1499

YFLHFLLYDHLRWLGIRAFL
P8_MAL Rank (after) [8]: 572
P8_MAL Rank (before) [9]: 1498

YFLHFMLFRRRGTEYI
Rank (after) [12]: 439
Rank (before) [13]: 1507

YFLHFRLLSRPETEYI
P8_MAL Rank (after) [10]: 643
P8_MAL Rank (before) [11]: 1505

YFLHLLLFSRPETEYN
P8_MAL Rank (after) [8]: 552
P8_MAL Rank (before) [9]: 1509

YFLHLLLFSRPETVYI
P8_MAL Rank (after) [10]: 615
P8_MAL Rank (before) [11]: 1508

YFLHSCCLAVRKPSI
Rank (after) [12]: 158
Rank (before) [13]: 1511

YFLHSLLISLTDPAYI
Rank (after) [12]: 452
Rank (before) [13]: 1510

YFLLFVLFGRSAIGSM
P8_MAL Rank (after) [3]: 713
P8_MAL Rank (before) [4]: 1459

YFLNFLLFSRPETDYI
Rank (after) [12]: 457
Rank (before) [13]: 1516

YFLQFLVFRRLGNEYV
P8_MAL Rank (after) [10]: 656
P8_MAL Rank (before) [11]: 1513

YFLQVRLFNLLESDDR
P8_MAL Rank (after) [10]: 600
P8_MAL Rank (before) [11]: 1514

YFWHALKNALAEHEKR
P3_MAL Rank (after) [10]: 674
P3_MAL Rank (before) [11]: 1334

YFWHALKNALAVNNDV
Population [7]: 0.056%
Rank (after) [1]: 97
Rank (before) [2]: 97

YFWNALENALAVNNDV
Rank (after) [1]: 479
Rank (before) [2]: 1335

YLKLGYPWCWDRRRFA
P3_MAL Rank (after) [10]: 583
P3_MAL Rank (before) [11]: 1500

YLKWGYPGLWDRLRFA
P3_MAL Rank (after) [5]: 212
P3_MAL Rank (before) [6]: 1517

YLKWGYPWFWIVCVL
Rank (after) [12]: 143
Rank (before) [13]: 1546

YLKWGYTRCWDRLRFA
Rank (after) [1]: 478
Rank (before) [2]: 1518

YLLLSVFQTIFARRTE
P8_MAL Rank (after) [5]: 238
P8_MAL Rank (before) [6]: 800

YLNSGYPWRYDRLRFA
P3_MAL Rank (after) [3]: 750
P3_MAL Rank (before) [4]: 1498

YNFISHLHRYLVQRGV
P3_MAL Rank (after) [8]: 562
P3_MAL Rank (before) [9]: 1581
